We go through 11 molecules from patent publication US20200399264A1, “4-SUBSTITUTED-2-THIAZOLE AMIDES AS ANTIVIRAL AGENTS” (Southern Research Institute, priority 2019, published 2020).

Data set [1] is described as follows: cell cytotoxicity in a cell viability assay (CC50). The class given is cell-based. The conditions noted are these: concentration required for 50% cell survival. The source says: As used herein, “CC50,” is intended to refer to the cell cytotoxicity to the concentration of a substance (e.g., a compound or a drug) that is required for 50% cell survival in a cell viability assay in vitro.

A further data set relates to CHIKV. Briefly: antiviral activity against CHIKV (VTR and EC90). It counts as cell-based. The conditions noted are these: Chikungunya virus; for log reduction at 10 µM: read-out: VTR @ 10 μM (logs). The source says: As used herein, “EC90,” is intended to refer to the concentration of a substance (e.g., a compound or a drug) that is required for 90% agonism of a biological process, or component of a process, including a protein, subunit, organelle, ribonucleoprotein, etc. In one aspect, an EC90 can refer to the concentration of a substance that is required for 90% agonism in vivo, as further defined elsewhere herein. In a further aspect, […].

In data set [1], `N#Cc1ccc(-c2cccc(-c3csc(NC(=O)c4cccnc4SC(F)F)n3)c2)cc1` [Compound 6, N-(4-(4′-Cyano-[1,1′-biphenyl]-3-yl)thiazol-2-yl)-2-((difluoromethyl)thio)nicotinamide] yielded a half-maximal cytotoxic concentration (CC50) greater than 30 µM. Further, the log reduction at 10 µM in the data set on CHIKV was 7.6.

Take `N#Cc1ccc(Nc2cccc(-c3csc(NC(=O)C45CC(C(=O)O)(C4)C5)n3)c2)cc1` [Compound 42, 3-((4-(3-((4-Cyanophenyl)amino)phenyl)thiazol-2-yl)carbamoyl)bicyclo[1.1.1]pentane-1-carboxylic Acid]: in data set [1], the CC50 is greater than 40 µM. Also, in the data set on CHIKV, the EC90 was greater than 10 µM and the log reduction at 10 µM stood at 0.

Molecule `CC(C)(C)c1ccc(C(=O)Nc2nc(-c3cccc(N4CCNCC4)c3)cs2)cc1` [Compound 30, 4-(Tert-Butyl)-N-(4-(3-(piperazin-1-yl)phenyl)thiazol-2-yl)benzamide] had a half-maximal cytotoxic concentration (CC50) in data set [1] of 4.1 µM. The log reduction at 10 µM with CHIKV was determined as 5.57.

`CC(C)(C)c1ccc(C(=O)Nc2nc(-c3cccc(-c4ccc(C#N)cc4)c3)cs2)cc1` [Compound 9, 4-(Tert-butyl)-N-(4-(4′-cyano-[1,1′-biphenyl]-3-yl)thiazol-2-yl)benzamide] came in with a 50% cytotoxic concentration (CC50) in data set [1] greater than 40 µM. For the same molecule, in the data set on CHIKV, the 90% effect level (EC90) was put at 0.28 µM and the log reduction at 10 µM worked out at 4.68.

Turning to `COC(=O)C12CC(C(=O)Nc3nc(-c4cccc(Nc5ccc(C#N)cc5)c4)cs3)(C1)C2` [Compound 43, Methyl 3-((4-(3-((4-cyanophenyl)amino)phenyl)thiazol-2-yl)carbamoyl)bicyclo[1.1.1]pentane-1-carboxylate], it took 13 µM to reach half-maximal cytotoxicity in data set [1] (CC50). In the data set on CHIKV, the 90% effect concentration (EC90) came out at 10.1 µM and the log reduction at 10 µM worked out at 0.74.

Consider `CSc1ncccc1C(=O)Nc1nc(-c2cc(C(=O)O)cc(-c3ccc(C#N)cc3)c2)cs1` [Compound 21, 4′-cyano-5-(2-(2-(methylthio)nicotinamido)thiazol-4-yl)-[1,1′-biphenyl]-3-carboxylic Acid], for which, in data set [1], the 50% cytotoxic concentration (CC50) was greater than 40 µM. Further, the log reduction at 10 µM in the data set with CHIKV is less than 1.

Molecule `CSc1ncccc1C(=O)Nc1nc(-c2cc(F)cc(-c3ccc(C#N)cc3)c2)cs1` [Compound 19, N-(4-(4′-Cyano-5-fluoro-[1,1′-biphenyl]-3-yl)thiazol-2-yl)-2-(methylthio)nicotinamide] returned a CC50 in data set [1] greater than 30 µM. Also, in the data set with CHIKV, it took 0.19 µM to reach the 90% level (EC90) and the log reduction at 10 µM amounted to 6.1.

For the molecule `CSc1ncccc1C(=O)Nc1nc(-c2cccc(Nc3cccc(C#N)c3)c2)cs1` [Compound 38, N-(4-(3-((3-Cyanophenyl)amino)phenyl)thiazol-2-yl)-2-(methylthio)nicotinamide], the CC50 in data set [1] is greater than 40 µM. Also, in the data set on CHIKV, the EC90 was determined as 0.15 µM and the log reduction at 10 µM stood at 5.72.

Turning to `CSc1ncccc1C(=O)Nc1nc(-c2cccc(Nc3cccc(C(F)(F)F)c3)c2)cs1` [Compound 40, 2-(Methylthio)-N-(4-(3-((3-(trifluoromethyl)phenyl)amino)phenyl)thiazol-2-yl)nicotinamide], the CC50 in data set [1] was greater than 40 µM. For the same molecule, in the data set on CHIKV, the EC90 is 3.1 µM and the log reduction at 10 µM is 5.36.

In turn, `CSc1ncccc1C(=O)Nc1nc(-c2cccc(N3CCCC3=O)c2)cs1` [Compound 35, 2-(Methylthio)-N-(4-(3-(2-oxopyrrolidin-1-yl)phenyl)thiazol-2-yl)nicotinamide] showed a CC50 in data set [1] of 39.4 µM. Besides, in the data set on CHIKV, the log reduction at 10 µM is less than 1.

On to `CSc1ncccc1C(=O)Nc1nc(-c2cccc(-c3ccc(C#N)cc3)c2)cs1` [Compound 4, N-(4-(4′-Cyano-[1,1′-biphenyl]-3-yl)thiazol-2-yl)-2-(methylthio)nicotinamide], for which the CC50 in data set [1] was greater than 40 µM. In the data set with CHIKV, the 90% effect level (EC90) was put at 0.31 µM and the log reduction at 10 µM stood at 4.73.
